Where “and” joins values, the source holds several entries; their conditions need not be identical. Equal values may be shown once. Read-outs that look alike come from different tables or passages of the source.
Assays:
[1] = patient with papillary carcinoma of the thyroid; cited from earlier work
[2] = daily times 5 schedule; cited from earlier work
[3] = test system: SARS-CoV-2; assay: microbe, parasite or virus in culture; type: cell-based
[4] = test system: Vero E6 cells
[5] = test system: OMP decarboxylase; conditions: for PYR concentration: 1 μM; for OMP concentration / Orotate concentration / UMP concentration: PYR 1 μM
[6] = test system: advanced lung cancer; conditions: weekly rapid iv injection, previously treated patients with advanced lung cancer; cited from earlier work
[7] = test system: HRV1A strain 2060; assay: Rhinovirus antiviral assay, inhibition of virus-induced cell killing (XTT) in H1-HeLa cells; type: cell-based; conditions: Enterovirus
[8] = in vitro; conditions: monkey
[9] = remdesivir dose response, brequinar 0.000 μM
[10] = remdesivir dose response, brequinar 0.078 μM
[11] = remdesivir dose response, brequinar 0.156 μM
[12] = remdesivir dose response, brequinar 0.313 μM
[13] = remdesivir dose response, brequinar 1.250 μM

In the case of `Cc1c(-c2ccc(-c3ccccc3F)cc2)nc2ccc(F)cc2c1C(=O)O` [Brequinar sodium], the tumor response [1] is listed as “One mixed response”, the maximum tolerated dose [2] is listed as 300 mg/m^2 and the “recommended phase II dose” value [2] is listed as 250 mg/m^2.
For `CC(C)C[C@H](NC(=O)OCc1ccccc1)C(=O)N[C@@H](CC1CCNC1=O)C(O)S(=O)(=O)[O-].[Na+]` (stereo partly drawn) [GC-376], the “E(Max)” value [3] was 100, the EC90 [3] was 5.73 µM and the EC50 ([3]; read-out: EC50: Concentration inhibiting 50% of the maximum CPE-protection effect of the compound (Emax)) was 2.04 µM. The IC50 ([3]; read-out: IC50: Concentration inhibiting 50% of the virus-induced CPE compared to the no infection control) was 2.04 µM and the CC50 [4] was > 50 µM.
With `NC(=O)c1[nH]nc([C@@H]2O[C@H](CO)[C@@H](O)[C@H]2O)c1O` [PYR, 5-[(2S,3R,4S,5R)-3,4-dihydroxy-5-(hydroxymethyl)oxolan-2-yl]-4-hydroxy-1H-pyrazole-3-carboxamide] the PYR concentration ([5]; 1 h) was 0 ng/mL, the PYR concentration ([5]; 4 h) was 0 ng/mL and the OMP concentration ([5]; Cells, 1 hr) was 0 ng/mL. The Orotate concentration ([5]; Cells, 1 hr) was 339 ng/mL, the UMP concentration ([5]; Cells, 1 hr) was 552 ng/mL and the OMP concentration ([5]; Cells, 4 hr) was 10 ng/mL. The Orotate concentration ([5]; Cells, 4 hr) was 1170 ng/mL, the UMP concentration ([5]; Cells, 4 hr) was 408 ng/mL and the OMP concentration ([5]; Cells, 24 hr) was 11 ng/mL. The Orotate concentration ([5]; Cells, 24 hr) was 1220 ng/mL, the UMP concentration ([5]; Cells, 24 hr) was 326 ng/mL and the OMP concentration ([5]; Supernatant, 24 hr) was 43 ng/mL. For the same compound, the Orotate concentration ([5]; Supernatant, 24 hr) was 10005 ng/mL, the UMP concentration ([5]; Supernatant, 24 hr) was 69 ng/mL and the therapeutic value [6] was “little therapeutic value as a single agent”.
With `CCOC(=O)/C=C/[C@H](C[C@@H]1CCNC1=O)NC(=O)[C@@H](CC(=O)[C@@H](NC(=O)c1cc(C)on1)C(C)C)Cc1ccc(F)cc1` [Rupintrivir] the EC50 [7] was 0.0107 µM.
For `CCC(CC)COC(=O)[C@H](C)N[P@](=O)(OC[C@H]1O[C@@](C#N)(c2ccc3c(N)ncnn23)[C@H](O)[C@@H]1O)Oc1ccccc1` [remdesivir], the “E(Max)” value [3] was 100, the “E(Max) of remdesivir” value [3] was 95.33 and 96.37 and 95.10 and the “Max Data” value [3] was 104.7% and 106.8% and 101.9%. The “Min Data” value [3] was 75.9% and 78.9% and 69.5%, the “increase in activity of remdesivir” value [3] was > 6.8 fold and the EC90 ([3]; Severe acute respiratory syndrome coronavirus 2, Vero C1008) was 1.4 µM. The EC50 ([3]; Severe acute respiratory syndrome coronavirus 2, Vero C1008, brequinar 0.000 μM; read-out: EC50 of remdesivir) was 0.801 µM, the IC50 ([3]; Severe acute respiratory syndrome coronavirus 2, Vero C1008, brequinar 0.000 μM; read-out: IC50 of remdesivir) was 0.823 µM and the EC50 ([3]; Severe acute respiratory syndrome coronavirus 2, Vero C1008, brequinar 0.078 μM; read-out: EC50 of remdesivir) was 0.277 µM. It also gave an IC50 ([3]; Severe acute respiratory syndrome coronavirus 2, Vero C1008, brequinar 0.078 μM; read-out: IC50 of remdesivir) of 0.292 µM, an EC50 ([3]; Severe acute respiratory syndrome coronavirus 2, Vero C1008, brequinar 0.156 μM; read-out: EC50 of remdesivir) of 0.186 µM and an IC50 ([3]; Severe acute respiratory syndrome coronavirus 2, Vero C1008, brequinar 0.156 μM; read-out: IC50 of remdesivir) of 0.102 µM. For the same compound, the EC50 ([3]; Severe acute respiratory syndrome coronavirus 2, Vero C1008, brequinar 0.313 μM; extrapolated value; read-out: EC50 of remdesivir) was 0.003 µM, the IC50 ([3]; Severe acute respiratory syndrome coronavirus 2, Vero C1008, brequinar 0.313 μM; extrapolated value; read-out: IC50 of remdesivir) was 0.003 µM and the EC50 ([3]; Severe acute respiratory syndrome coronavirus 2, Vero C1008, brequinar 1.250 μM; read-out: EC50 of remdesivir) was < 0.0195 µM. The IC50 ([3]; Severe acute respiratory syndrome coronavirus 2, Vero C1008, brequinar 1.250 μM; read-out: IC50 of remdesivir) was < 0.0195 µM, the EC50 ([3]; Severe acute respiratory syndrome coronavirus 2, Vero C1008, read-out: EC50 of remdesivir) was < 0.0195 µM and the IC50 ([3]; Severe acute respiratory syndrome coronavirus 2, Vero C1008, read-out: IC50 of remdesivir) was < 0.0195 µM. It also gave an IC50 ([3]; Severe acute respiratory syndrome coronavirus 2, Vero C1008, read-out: remdesivir concentration to suppress viral replication to 50%) of 0.1 µM, an EC50 ([3]; Severe acute respiratory syndrome coronavirus 2, Vero C1008; read-out: EC50: Concentration inhibiting 50% of the maximum CPE-protection effect of the compound (Emax)) of 0.82 µM and an IC50 ([3]; Severe acute respiratory syndrome coronavirus 2, Vero C1008; read-out: IC50: Concentration inhibiting 50% of the virus-induced CPE compared to the no infection control) of 0.82 µM. For the same compound, the “SI50: Selective Index 50 = CC50/IC50” value ([3]; Vero E6) was >61, the “E(Max) of remdesivir” value ([3]; brequinar 0.000 μM) was 92.02 and the “E(Max) of remdesivir” value ([3]; brequinar 0.078 μM) was 97.37. The “E(Max) of remdesivir” value ([3]; brequinar 0.156 μM) was 122.66, the “E(Max) of remdesivir” value ([3]; brequinar 0.313 μM) was 97.35 and the “E(Max) of remdesivir” value ([3]; brequinar 1.250 μM) was 100.22. For the same compound, the “Max Data” value [3, 9] was 97.1%, the “Min Data” value [3, 9] was −11% and the “Max Data” value [3, 10] was 94.4%. For the same compound, the “Min Data” value [3, 10] was −1.9%, the “Max Data” value [3, 11] was 102.6% and the “Min Data” value [3, 11] was 22.1%. The “Max Data” value [3, 12] was 103.8%, the “Min Data” value [3, 12] was 55.4% and the “Max Data” value [3, 13] was 105.1%. The “Min Data” value [3, 13] was 80.1%, the “cytotoxicity of the co-treatment” value ([4]; remdesivir co-treatment with brequinar) was “No enhanced cytotoxicity was detected” and the CC50 ([8]; CC50, Vero E6) was > 50 µM. The CC50 ([8]; CC50 of remdesivir) was > 50 µM, the CC50 ([8]; CC50 of remdesivir, brequinar 0.000 μM) was > 25 µM and the CC50 ([8]; CC50 of remdesivir, brequinar 0.078 μM) was > 50 µM. For the same compound, the CC50 ([8]; CC50 of remdesivir, brequinar 0.156 μM) was > 50 µM, the CC50 ([8]; CC50 of remdesivir, brequinar 0.313 μM) was > 50 µM and the CC50 ([8]; CC50 of remdesivir, brequinar 1.250 μM) was > 50 µM.
With `NC(=O)c1ncn([C@@H]2O[C@H](CO)[C@@H](O)[C@H]2O)n1` [ribavirin] the IC50 ([3]; Severe acute respiratory syndrome coronavirus 2, Vero C1008, read-out: IC50: Concentration inhibiting 50% of the virus-induced CPE compared to the no infection control) was > 50 µM, the EC90 ([3]; Severe acute respiratory syndrome coronavirus 2, Vero C1008; Vero E6, MOI of 0.05) was > 50 µM and the CC50 ([8]; CC50) was > 50 µM.

— patent publication US20210290651A1, “METHODS OF TREATING VIRAL INFECTIONS USING INHIBITORS OF NUCLEOTIDE SYNTHESIS PATHWAYS” (priority 2020, published 2021)
